Experimental data as given in patent US11072596B2, “Poly(ADP-ribose) polymerase inhibitor, preparation method and use” (SELECTION BIOSCIENCE LLC, priority 2017, dated 2021).
pIC50: −log10 of the molar value.

Target: T1, PARP1 (Homo sapiens, UniProt P09874)
T1 construct: purchased BPS 80580
Assay: PARP1 Colorimetric Assay (PARP-1 kinase inhibitory activity)
Assay type: biochemical
Conditions: PARP1 colorimetric assay kit, 1 hour at room temperature; read-out: PARP1 (in vitro enzymatic inhibitory activity, IC50)
Protocol: PARP1 kinase activity was tested by the following method:
PARP1 Colorimetric Assay Kit (BPS, Cat #80580)
1. PARP1 Colorimetric Assay
2) 50 μL of diluted coating solution was added to each well for overnight at 4° C.
4) 200 μL of blocking buffer was added to each well and incubated at room temperature for 90 minutes.
1) A reaction solution was prepared in a ratio of […] 2.5 μL 10×PARP buffer+2.5 μL 10×PARP Assay mixture+5 μL Activated DNA+15 μL deionized water per well, and 25 μL of the reaction solution was added to each well (see Table 1).
4) 100 μL of colorimetric HRP substrate was added to each well and reacted at room temperature for 20 minutes.
5) 100 μL of 2 M H2SO4 was added to each well and OD 450 nm was read on a microplate reader.

T1 sequence (P09874 whole entry): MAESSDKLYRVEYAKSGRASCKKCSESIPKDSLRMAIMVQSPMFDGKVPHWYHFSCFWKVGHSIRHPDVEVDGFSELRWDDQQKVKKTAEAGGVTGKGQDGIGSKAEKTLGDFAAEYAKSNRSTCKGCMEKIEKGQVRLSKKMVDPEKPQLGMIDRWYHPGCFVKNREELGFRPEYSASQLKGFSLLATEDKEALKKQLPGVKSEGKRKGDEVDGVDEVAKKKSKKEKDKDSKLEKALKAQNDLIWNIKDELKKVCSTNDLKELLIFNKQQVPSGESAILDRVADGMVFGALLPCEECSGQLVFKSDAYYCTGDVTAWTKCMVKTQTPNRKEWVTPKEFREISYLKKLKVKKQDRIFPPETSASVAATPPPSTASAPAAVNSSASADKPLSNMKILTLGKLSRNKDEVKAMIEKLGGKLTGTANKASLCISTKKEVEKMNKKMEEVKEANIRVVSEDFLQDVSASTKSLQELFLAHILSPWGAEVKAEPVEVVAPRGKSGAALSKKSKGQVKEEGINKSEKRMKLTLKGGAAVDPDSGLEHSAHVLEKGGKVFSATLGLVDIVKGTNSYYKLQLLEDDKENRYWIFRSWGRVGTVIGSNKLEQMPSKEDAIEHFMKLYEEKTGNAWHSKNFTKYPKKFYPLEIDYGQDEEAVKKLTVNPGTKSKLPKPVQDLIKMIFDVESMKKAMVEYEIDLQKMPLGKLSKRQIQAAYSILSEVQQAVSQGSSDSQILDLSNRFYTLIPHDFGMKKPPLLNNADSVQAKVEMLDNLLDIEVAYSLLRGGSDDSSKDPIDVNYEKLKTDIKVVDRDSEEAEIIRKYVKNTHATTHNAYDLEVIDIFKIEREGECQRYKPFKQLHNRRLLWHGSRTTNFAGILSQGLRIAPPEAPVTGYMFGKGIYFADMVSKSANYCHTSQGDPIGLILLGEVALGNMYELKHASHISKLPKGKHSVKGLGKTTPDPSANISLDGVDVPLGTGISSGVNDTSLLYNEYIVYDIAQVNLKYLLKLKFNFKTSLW

SMILES	pIC50
NC(=O)c1cccc2c(F)n(-c3ccc([C@]4(F)CCCNC4)cc3)nc12 [Example 30]	> 7.00
NC(=O)c1c(F)ccc2cn(-c3ccc(C4(F)CCCNC4)cc3)nc12 (centres unmarked) [Example 37]	6.30 to 7.00
NC(=O)c1c(F)ccc2cn(-c3ccc([C@@]4(F)CCCNC4)cc3)nc12 [Example 39]	6.30 to 7.00
CC1(c2ccc(-n3cc4cc(F)cc(C(N)=O)c4n3)cc2)CCCNC1 (centres unmarked) [Example 46]	6.30 to 7.00
NC(=O)c1cccc2c(F)n(-c3ccc(C4(F)CCCNC4)cc3)nc12 (centres unmarked) [Example 31]	6.30 to 7.00
NC(=O)c1cc(F)cc2cn(-c3ccc(C4(F)CCCNC4)cc3)nc12 (centres unmarked) [Example 25]	> 7.00
NC(=O)c1ccc(F)c2cn(-c3ccc([C@]4(F)CCCNC4)cc3)nc12 [Example 41]	6.30 to 7.00
C[C@@]1(c2ccc(-n3cc4cc(F)cc(C(N)=O)c4n3)cc2)CCCNC1 [Example 47]	6.30 to 7.00
C[C@]1(c2ccc(-n3cc4cccc(C(N)=O)c4n3)cc2)CCCNC1 (single isomer, unassigned) [Example 45, (R or S)-2-(4-(3-methylpiperidin-3-yl)phenyl)-2H-indazole-7-carboxamide]	6.30 to 7.00
NC(=O)c1ccc(F)c2cn(-c3ccc(C4(F)CCCNC4)cc3)nc12 (centres unmarked) [Example 40]	6.30 to 7.00
CC1(c2ccc(-n3nc4c(C(N)=O)cccc4c3F)cc2)CCCNC1 (centres unmarked) [Example 52]	6.00 to 6.30
C[C@]1(c2ccc(-n3cc4cc(F)cc(C(N)=O)c4n3)cc2)CCCNC1 [Example 48]	6.30 to 7.00
C[C@]1(c2ccc(-n3nc4c(C(N)=O)cccc4c3F)cc2)CCCNC1 [Example 53]	6.00 to 6.30
NC(=O)c1cc(F)cc2cn(-c3ccc([C@]4(F)CCCNC4)cc3)nc12 [Example 26]	> 7.00
C[C@]1(c2ccc(-n3cc4cccc(C(N)=O)c4n3)cc2)CCCNC1 [Example 44, (R or S)-2-(4-(3-methylpiperidin-3-yl)phenyl)-2H-indazole-7-carboxamide]	6.30 to 7.00
NC(=O)c1ccc(F)c2cn(-c3ccc([C@@]4(F)CCCNC4)cc3)nc12 [Example 42]	6.30 to 7.00
NC(=O)c1cccc2c(F)n(-c3ccc([C@]4(F)CCCNC4)cc3)nc12 [Example 33]	6.30 to 7.00
NC(=O)c1c(F)ccc2cn(-c3ccc([C@]4(F)CCCNC4)cc3)nc12 [Example 38]	6.30 to 7.00
NC(=O)c1cccc2c(F)n(-c3ccc([C@@]4(F)CCCNC4)cc3)nc12 [Example 32]	6.30 to 7.00
C[C@@]1(c2ccc(-n3nc4c(C(N)=O)cccc4c3F)cc2)CCCNC1 [Example 54]	6.00 to 6.30
NC(=O)c1cc(F)cc2cn(-c3ccc([C@@]4(F)CCCNC4)cc3)nc12 [Example 27]	> 7.00

Further lines, results first:

pIC50	SMILES
6.30 to 7.00	NC(=O)c1cccc2cn(-c3ccc([C@]4(F)CCCNC4)cc3F)nc12 [Example 36]
6.30 to 7.00	[2H][C@]1(c2ccc(-n3nc4c(C(N)=O)cccc4c3F)cc2)CCCNC1 [Example 11]
> 7.00	[2H]C1(c2ccc(-n3cc4cc(F)cc(C(N)=O)c4n3)c(F)c2)CCCNC1 (centres unmarked) [Example 19]
6.30 to 7.00	[2H][C@@]1(c2ccc(-n3nc4c(C(N)=O)cccc4c3F)cc2)CCCNC1 [Example 12]
6.30 to 7.00	[2H][C@]1(c2ccc(-n3cc4cccc(C(N)=O)c4n3)c(F)c2)CCCNC1 [Example 14]
6.30 to 7.00	NC(=O)c1cccc2cn(-c3ccc(C4(F)CCCNC4)cc3F)nc12 (centres unmarked) [Example 34]
> 7.00	[2H][C@]1(c2ccc(-n3cc4cc(F)cc(C(N)=O)c4n3)cc2)CCCNC1 [Example 6]
> 7.00	[2H][C@]1(c2ccc(-n3cc4cc(F)cc(C(N)=O)c4n3)c(F)c2)CCCNC1 [Example 21]
> 7.00	NC(=O)c1cccc2cn(-c3ccc(C4(F)CCCNC4)c(F)c3)nc12 (centres unmarked) [Example 28]
6.30 to 7.00	[2H]C1(c2ccc(-n3nc4c(C(N)=O)cccc4c3F)cc2)CCCNC1 (centres unmarked) [Example 10]
6.30 to 7.00	CC1(c2ccc(-n3cc4cccc(C(N)=O)c4n3)cc2F)CCCNC1 (centres unmarked) [Example 49]
> 7.00	NC(=O)c1cccc2cn(-c3ccc(C4(F)CCCNC4)cc3)nc12 (racemic) [Example 22, 2-(4-(3-Fluoropiperidin-3-yl)phenyl)-2H-indazole-7-carboxamide]
6.30 to 7.00	CC1(c2ccc(-n3cc4cccc(C(N)=O)c4n3)c(F)c2)CCCNC1 (centres unmarked) [Example 55]
6.30 to 7.00	C[C@@]1(c2ccc(-n3cc4cccc(C(N)=O)c4n3)cc2F)CCCNC1 [Example 51]
> 7.00	[2H]C1(c2ccc(-n3cc4cccc(C(N)=O)c4n3)cc2F)CCCNC1 (centres unmarked) [Example 7]
> 7.00	[2H][C@@]1(c2ccc(-n3cc4cc(F)cc(C(N)=O)c4n3)c(F)c2)CCCNC1 [Example 20]

pIC50	SMILES
6.30 to 7.00	NC(=O)c1cccc2cn(-c3ccc([C@@]4(F)CCCNC4)cc3F)nc12 [Example 35]
> 7.00	[2H]C1(c2ccc(-n3cc4cc(F)cc(C(N)=O)c4n3)cc2)CCCNC1 (centres unmarked) [Example 4]
6.30 to 7.00	[2H]C1(c2ccc(-n3cc4cccc(C(N)=O)c4n3)c(F)c2)CCCNC1 (centres unmarked) [Example 13]
> 7.00	[2H]C1(c2ccc(-n3cc4cc(F)cc(C(N)=O)c4n3)cc2F)CCCNC1 (centres unmarked) [Example 16]
> 7.00	[2H][C@@]1(c2ccc(-n3cc4cccc(C(N)=O)c4n3)cc2F)CCCNC1 [Example 9]
6.30 to 7.00	C[C@]1(c2ccc(-n3cc4cccc(C(N)=O)c4n3)c(F)c2)CCCNC1 [Example 56]
> 7.00	NC(=O)c1cccc2cn(-c3ccc([C@]4(F)CCCNC4)cc3)nc12 (single isomer, unassigned) [Example 24, (R or S)-2-(4-(3-fluoropiperidin-3-yl)phenyl)-2H-indazole-7-carboxamide]
> 7.00	[2H][C@@]1(c2ccc(-n3cc4cc(F)cc(C(N)=O)c4n3)cc2F)CCCNC1 [Example 17]
> 7.00	[2H][C@]1(c2ccc(-n3cc4cccc(C(N)=O)c4n3)cc2F)CCCNC1 [Example 8]
> 7.00	[2H][C@]1(c2ccc(-n3cc4cc(F)cc(C(N)=O)c4n3)cc2F)CCCNC1 [Example 18]
6.30 to 7.00	C[C@@]1(c2ccc(-n3cc4cccc(C(N)=O)c4n3)c(F)c2)CCCNC1 [Example 57]
6.30 to 7.00	C[C@]1(c2ccc(-n3cc4cccc(C(N)=O)c4n3)cc2F)CCCNC1 [Example 50]
6.30 to 7.00	[2H][C@@]1(c2ccc(-n3cc4cccc(C(N)=O)c4n3)c(F)c2)CCCNC1 [Example 15]
> 7.00	[2H][C@@]1(c2ccc(-n3cc4cc(F)cc(C(N)=O)c4n3)cc2)CCCNC1 [Example 5]
6.30 to 7.00	CC1(c2ccc(-n3cc4cccc(C(N)=O)c4n3)cc2)CCCNC1 (racemic) [Example 43, 2-(4-(3-Methylpiperidin-3-yl)phenyl)-2H-indazole-7-carboxamide]
> 7.00	NC(=O)c1cccc2cn(-c3ccc([C@@]4(F)CCCNC4)c(F)c3)nc12 [Example 29]

Target: hERG potassium ion channel (Homo sapiens, UniProt Q12809)
Assay: in vitro
Conditions: human
Protocol: CHO-hERG cells were cultured in a 175 cm^2 flask, and when the cell density was increased to 60-80%, the medium was removed and washed with 7 mL of PBS (Phosphate Buffered Saline phosphate buffer), and then digested with 3 mL of Detachin.
The single-cell high impedance sealing and the whole-cell mode formation process were all automatically completed by the Qpatch instrument. After obtaining the whole-cell recording mode, the cells were clamped at −80 mV (millivolt). Before giving a 5-second+40 mV depolarization stimulus, a 50 ms-50 mV pre-voltage was first given, repolarized to −50 mV for 5 seconds, and then returned to −80 mV. This voltage stimulation was applied every 15 seconds. After recording for 2 minutes, extracellular fluid was given for 5 minutes, and then the administration process was started. The compound concentration started from the lowest test concentration, and each test concentration was given for 2.5 minutes. […] At least 3 cells were tested at each concentration (n≥3).
The 20 mM compound mother solution was diluted with extracellular fluid, and 5 μL of 20 mM compound mother solution was added to 2495 μL of extracellular solution, diluted 500-fold to 40 μM, and then sequentially performed 3-fold continuous dilution in an extracellular fluid containing 0.2% DMSO to obtain the final concentration to be tested.
The experimental data were analyzed by XLFit software.

hERG potassium ion channel, sequence (Q12809 whole entry): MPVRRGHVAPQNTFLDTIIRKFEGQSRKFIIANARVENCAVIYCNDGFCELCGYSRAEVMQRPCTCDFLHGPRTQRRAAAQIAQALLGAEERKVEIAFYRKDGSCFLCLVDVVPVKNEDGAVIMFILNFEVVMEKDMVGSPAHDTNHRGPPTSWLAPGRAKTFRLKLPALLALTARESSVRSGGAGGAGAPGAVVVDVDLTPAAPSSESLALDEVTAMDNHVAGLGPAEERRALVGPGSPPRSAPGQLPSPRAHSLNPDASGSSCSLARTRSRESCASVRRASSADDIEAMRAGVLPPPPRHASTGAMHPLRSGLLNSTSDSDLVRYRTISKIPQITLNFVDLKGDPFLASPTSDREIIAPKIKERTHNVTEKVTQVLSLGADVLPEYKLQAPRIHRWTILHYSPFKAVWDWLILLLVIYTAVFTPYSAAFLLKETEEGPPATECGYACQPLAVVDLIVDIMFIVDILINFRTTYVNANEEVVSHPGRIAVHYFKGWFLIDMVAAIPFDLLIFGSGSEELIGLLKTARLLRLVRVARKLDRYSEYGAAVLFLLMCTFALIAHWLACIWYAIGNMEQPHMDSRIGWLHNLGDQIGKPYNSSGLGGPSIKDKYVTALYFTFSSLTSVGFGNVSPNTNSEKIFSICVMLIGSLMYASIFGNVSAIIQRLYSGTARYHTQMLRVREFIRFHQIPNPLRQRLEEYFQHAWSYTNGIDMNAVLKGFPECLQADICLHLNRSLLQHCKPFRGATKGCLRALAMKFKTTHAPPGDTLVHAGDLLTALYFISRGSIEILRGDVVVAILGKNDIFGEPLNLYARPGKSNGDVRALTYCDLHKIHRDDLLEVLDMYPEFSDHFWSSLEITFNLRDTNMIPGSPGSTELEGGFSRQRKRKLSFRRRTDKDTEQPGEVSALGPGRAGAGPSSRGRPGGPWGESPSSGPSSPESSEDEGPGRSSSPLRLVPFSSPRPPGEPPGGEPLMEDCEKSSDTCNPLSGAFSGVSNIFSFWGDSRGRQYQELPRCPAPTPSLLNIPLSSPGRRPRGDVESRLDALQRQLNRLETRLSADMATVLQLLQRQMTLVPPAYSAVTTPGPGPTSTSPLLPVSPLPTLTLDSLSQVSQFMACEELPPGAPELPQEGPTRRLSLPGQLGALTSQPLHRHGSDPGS

SMILES	inhibition at 2.5 min, 40 µM
COc1cc(N)c(Cl)cc1C(=O)NC1CCN(CCCOc2ccc(F)cc2)CC1OC (centres unmarked) [Cisapride]	87.4%

Tested on: not listed separately
Assay: Pharmacokinetic study in rats
Conditions: SD rats, PO 10 mg/kg
Protocol: SD rats were used as test animals, and the drug concentrations in plasma at different times after intravenous and intragastric administration of the compounds of examples were determined by LC/MS/MS method(s) to study the pharmacokinetics of the compound in the present disclosure in rats
Healthy adult male SD (Sprague-Dawley) rats, 3 animals per test compound, 6-9 weeks old, weighing 250±50 g, were purchased from Shanghai SLAC Laboratory Animal Co., Ltd.
The appropriate amount of sample was weighed out, 0.5% Methocel/2% tween 80 was added to the final volume, and 2 mg/mL was prepared for intragastric administration.
Each 3 male SD rats of each test compound were taken by intragastric administration at a dosage of 10 mg/kg after fasting overnight.
Blood samples of each animal were collected at different time points 0.083-24 h from jugular vein puncture after administration, K2-EDTA anticoagulation, centrifugation, and blood plasma were collected, frozen at −70° C. until LC/MS/MS analysis.

F	exposure amount (AUC) compared with Niraparib, in words	SMILES
62.3%	significantly higher	[2H]C1(c2ccc(-n3cc4cccc(C(N)=O)c4n3)cc2)CCCNC1 (single isomer, unassigned) [Example 3, (R or S)-2-(4-(piperidin-3-D-3-yl)phenyl)-2H-indazole-7-carboxamide]

Same assay, conditions: SD rats, table head: Dose PO (10 mg/kg)

CL	Vdss	SMILES
24.9 mL/min/kg	6.04 L/kg	[2H]C1(c2ccc(-n3cc4cccc(C(N)=O)c4n3)cc2)CCCNC1 (single isomer, unassigned) [Example 3, (R or S)-2-(4-(piperidin-3-D-3-yl)phenyl)-2H-indazole-7-carboxamide]

Same assay, conditions: male, Sprague-Dawley, rat, in vivo, po, 10 mg/kg

F	MRT	T1/2	SMILES
61.3%	4.63 h	2.64 h	NC(=O)c1cccc2cn(-c3ccc([C@]4(F)CCCNC4)cc3)nc12 (single isomer, unassigned) [Example 24, (R or S)-2-(4-(3-fluoropiperidin-3-yl)phenyl)-2H-indazole-7-carboxamide]

Same assay, conditions: male, Sprague-Dawley, rat, plasma, po, 10 mg/kg, AUC, SD rats, PO 10 mg/kg

AUC	SMILES
5160 ng·h/mL	[2H]C1(c2ccc(-n3cc4cccc(C(N)=O)c4n3)cc2)CCCNC1 (single isomer, unassigned) [Example 3, (R or S)-2-(4-(piperidin-3-D-3-yl)phenyl)-2H-indazole-7-carboxamide]

Same assay, conditions: male, Sprague-Dawley, rat, plasma, po, 10 mg/kg, Cmax, SD rats, PO 10 mg/kg

Cmax	SMILES
549 ng/mL	[2H]C1(c2ccc(-n3cc4cccc(C(N)=O)c4n3)cc2)CCCNC1 (single isomer, unassigned) [Example 3, (R or S)-2-(4-(piperidin-3-D-3-yl)phenyl)-2H-indazole-7-carboxamide]

Same assay, conditions: male, Sprague-Dawley, rat, plasma, po, 10 mg/kg, MRT, SD rats, PO 10 mg/kg

MRT	SMILES
7.95 h	[2H]C1(c2ccc(-n3cc4cccc(C(N)=O)c4n3)cc2)CCCNC1 (single isomer, unassigned) [Example 3, (R or S)-2-(4-(piperidin-3-D-3-yl)phenyl)-2H-indazole-7-carboxamide]

Same assay, conditions: male, Sprague-Dawley, rat, plasma, po, 10 mg/kg, T1/2, SD rats, PO 10 mg/kg

half-life	SMILES
3.18 h	[2H]C1(c2ccc(-n3cc4cccc(C(N)=O)c4n3)cc2)CCCNC1 (single isomer, unassigned) [Example 3, (R or S)-2-(4-(piperidin-3-D-3-yl)phenyl)-2H-indazole-7-carboxamide]
